Where “and” joins values, the source holds several entries; their conditions need not be identical. Equal entries are not always repeated. Entries after “also recorded” stand apart in the source; their conditions may differ.
What was measured:
[1] = test system: bovine peripheral blood mononuclear cells (PBMCs); assay: Cytokine production in bovine PBMCs after TLR 4 agonist stimulation; type: cell-based; conditions: LPS or MPLA stimulation
Description: (§1) Chicken CATH2 is a host defense peptide that is naturally expressed in chicken heterophils and several tissues. […] LPS and MPLA serve as potent Toll-like Receptor 4 (TLR 4) agonists in this assay and induce high levels of proinflammatory cytokines such as interleukin 6 (IL-6) and tumor necrosis factor alpha (TNFα).

[2] = test system: Streptococcus uberis; assay: S. uberis challenge study, Example 4; type: in vivo, cattle
[3] = test system: primary bovine mammary epithelial cells (pMEC); assay: Cytokine production in primary bovine mammary epithelial cells, unstimulated or LPS/MPLA (TLR 4 agonist) stimulated; type: cell-based
Description: as §1

[4] = Transcriptomics after treatment alone in the lactating cow model; type: in vivo; conditions: 100 mg/10 mL, 12 hour post administration, lactating cows
Description: Prior to challenge in the lactating cow model, there is a consistent treatment effect of CATH2 alone indicating a modulation of the animal immune response. In the lactating cow model, these shifts lead to an enhanced response in clearance of the E. coli and resolution of inflammation as compared to untreated controls.

[5] = test system: S. aureus; assay: S. aureus challenge study, treatment at onset of clinical mastitis, Example 3; type: in vivo, Holstein or Holstein Crossbred cattle; conditions: 6 doses at 50 mg/10 mL intramammary
Description: Bovine mastitis specific bacterial pathogens were used to experimentally infect periparturient cows and first lactation heifer Holstein or Holstein Crossbred cattle to test the efficacy of the CATH2 peptide in the treatment and prevention of clinical mastitis.
A frozen stock of S. aureus was used to prepare a suspension of approximately 600 colony forming units in 5 mL. Standard plate counts were conducted on the challenge suspension immediately after preparation and after all animals were challenged. Details of each challenge inoculum preparation including concentration (CFU/5 mL) for pre- and post-challenge preparation were documented and confirmed to be in range.
Quarters that were bacteriologically positive for S. aureus were regarded as infected. Clinical mastitis was defined as a challenged quarter having a clinical score of at least 1 for either milk appearance or udder evaluation with an isolation of S. aureus (≥100 cfu/mL) from the quarter within 2 days of clinical signs. Sub-clinical chronic mastitis was defined as isolation of S. aureus (≥100 cfu/mL) from a challenged quarter and elevated SCC (>200,000 cells/mL) in the absence of abnormal milk or udder score.
All treatments were administered in accordance with the randomization provided by the biometrician into the challenged quarter (left front) of the udder. Treatments were administered upon onset of clinical mastitis. In this model, onset is approximately 1 to 3 days post-challenge. Upon confirmation of clinical mastitis, treatments were administered at the next milking. Treatments were administered with a 10 mL syringe via intramammary infusion and recorded.
Each animal with clinical mastitis received a total of 6 doses at 50 mg/10 mL by intramammary infusion administered twice daily for 3 consecutive days.

[6] = test system: Escherichia coli; assay: Lactating cow E. coli mastitis challenge model, Example 1; type: in vivo, Holstein Crossbred Cattle
Description: A frozen stock of E. coli was used to prepare a suspension of approximately 500 colony forming units/10 mL using standard site procedures. Standard plate counts were conducted on the challenge suspension immediately after preparation and after all animals were challenged. Details of the challenge inoculum preparation including concentration (CFU/10 mL) for the pre- and post-challenge preparation were documented and confirmed to be in range. Locally sourced healthy adult female Holstein Crossbred Cattle in the first, second, or third lactation were enrolled into the studies. Animals challenged with E. coli were susceptible to E. coli as determined by vaccination records and low serum titer to E. coli. Animals enrolled were confirmed to be between 14 and 35 days post-calving at enrollment. […] Following challenge quarters bacteriologically positive for E. coli were regarded as infected. Clinical mastitis was defined as a challenged quarter having a clinical score of at least 1 for either milk appearance or udder evaluation and an isolation of E. coli from the challenged quarter. Subclinical mastitis was defined as isolation of E. coli from the challenged quarter and elevated SSC in the absence of abnormal milk or udder score. This isolate elicits a moderate case of E. coli mastitis with body temperature increase in the first 24 hours post challenge and consistent local signs on udder appearance and milk quality.
In this study, animals were treated with 50 mg/10 mL at 12-hour intervals starting 12 hours prior to E. coli challenge. A total of 4 doses were administered by intramammary infusion. Dose administration concluded 24 hours after challenge. The objective of the study was to evaluate the potential for CATH2 to reduce the severity of clinical mastitis by modulation of the host immune response. The dose regimen was designed to ensure sufficient exposure in the absence of understanding the duration of the immunological effect driven by the peptide in cattle.
The experimental design was a randomized design with a one-way treatment structure replicated in 3 batches. […] Milk samples were collected for transcriptomic analysis and cytokine profiles in the whey at 12 hours post-challenge. Differential quantitative milk leukocyte counts were collected for 7 days post challenge.
One hundred fifty bovine milk samples were obtained in 3 separate cohorts and processed to whey. The whey samples were analyzed for total protein levels and the levels of 8 total cytokines using the developed MSD whey U-Plex method.

[7] = test system: bacteria; assay: Modified minimal bactericidal concentration assay in varying concentrations of milk; type: cell-based; conditions: as little as 10% whole and skim milk
Description: The CATH2 peptide has antibacterial activity where it causes membrane disruption and lysis of the bacterial cell. The peptide also has cytotoxic effects on eukaryotic cells at high concentrations due the high positive charge, +8, and its ability to integrate in the cell membrane, resulting in membrane disruption. To further understand the behavior of the peptide in the context of the mammary gland, the inventors investigated the antibacterial activity and cytotoxicity of the peptide in the presence of milk. […] This finding led the inventors to investigate the impact of milk protein binding on peptide activity.

[8] = Dry off therapy: transcriptomics of udder secretions in healthy dry cows, Example 5; type: in vivo, Holstein cattle; conditions: 400 mg/10 mL, 1-day post administration
Description: In an additional study, pregnant multiparous Holstein cattle were treated with a single dose of CATH2 at approximately 60 days prior to expected calving dates for this group of animals by intramammary infusion following milking. These animals were considered to be entering the so-called dry period in which animals are no longer milked until post-partition. The objective of this study was to understand the immunomodulatory activity of varying doses of CATH2 administered by intramammary infusion in healthy multiparous cows at dry off.
Udder secretion samples were collected 1, 2, and 7 days post administration. Samples were also collected from the neighboring Right Rear quarter as an untreated in animal control of varying immunological responses. The samples were processed for transcriptomics analysis to determine the healthy animal response to treatment alone.

[9] = test system: E. coli challenge strain; assay: Antibacterial activity of 2 mg peptide in varying milk concentrations, 2-minute pre-incubation; type: cell-based
Description: In a follow up assay to better understand the impact of milk protein binding on antibacterial activity that may be seen in vivo, a ratio of peptide to milk protein was estimated. In this assay varying concentrations of milk in bacterial growth medium was incubated with 2 mg of peptide. Two minutes after adding peptide to the tube, 500 colony forming units (CFU)/mL of the E. coli challenge strain was added. The timing was purposeful for understanding how quickly the peptide can be completely bound. The low inoculum was also chosen intentionally to more closely replicate the dose provided in the in vivo challenge model, thereby providing a worst-case scenario on exposure to free peptide. […] The quantity of milk protein was enough to bind 2 mg of CATH2 peptide. The bacterial growth was evaluated at 1, 2, 4, 6, and 24 hours post inoculation. […] The lower level of detection was 10 CFU/mL and the upper level of quantification measured for the purposes of this assay was set to 1.5×10^5 CFU/mL.

[10] = test system: Escherichia coli; assay: E. coli intramammary challenge in lactating dairy cows, CATH2 and analogs, Example 2; type: in vivo, Holstein cows; conditions: for overall protection against mastitis following IMM challenge with E. coli / intramammary infection observed / animals meeting criteria for clinical mastitis: 50 mg/10 mL; for intramammary infection observed: 4 treatments prior to challenge, vehicle 100%; for animals meeting criteria for clinical mastitis: 4 treatments twice daily for 2 days prior to challenge, vehicle 100.0%, FIG. 9; for milk concentrations of BSA, milk haptoglobin, milk amyloid A, IL-1 beta, IL-6, IL-8, IL-10 and TNFα: FIGS. 13-20
Description: The objective of this study was to evaluate the efficacy of Cathelicidin-2 peptide analogs for reduction of incidence of clinical mastitis and severity of infection following Escherichia coli intramammary (IMM) infusion in lactating dairy cows. Healthy Holstein cows in their second or third lactation were selected based on culture negative results for mastitis pathogens and low somatic cell counts≤200,000. Enrolled animals were randomly assigned to treatment. Cows were commingled, housed and fed according to standard site procedures, and fitted with sensors to monitor activity. Cows were milked twice daily at regular intervals. The assigned treatment was administered following am and pm milkings starting 2 days prior to challenge. Four total treatments and the challenge were administered in the left front quarter. Treatment was administered twice daily for 2 days prior to challenge. The E. coli challenge material was administered to the treated quarter on the morning of Day 0 of study. The treatment regimen was designed to evaluate efficacy for prevention of the disease. All peptides were dosed at 50 mg/10 mL per dose. Milk samples were collected for analysis at 6-hour intervals on Day 0, and at each morning's milking from Day 1 through Day 7, and on Days 11 and 14.

Sequence: RFGRFLRKIRRFRPKVTITIQ [CATH2, truncated 1-21 amino acid L-form of chicken cathelicidin 2 peptide]
- proinflammatory cytokines (IL-6, TNFα) in PBMCs [1]: effectively inhibits these proinflammatory cytokines
- animals meeting criteria for removal from study (Kaplan Meier analysis) ([2]; 50 mg/10 mL, 2 doses prior to challenge or 4 doses spanning challenge, FIG. 21): reduction in the number of animals meeting criteria for removal of study
- incidence of clinical mastitis ([2]; 50 mg/10 mL, both regimens, FIG. 22): reduced incidence of clinical mastitis
- progression of clinical mastitis, 4 dose regimen vs 2 dose regimen ([2]; 4 doses at -12, 0, 12, 24 hours): greater capacity to inhibit the progression of clinical mastitis
- proinflammatory cytokines (IL-6, TNFα) upon LPS or MPLA stimulation ([3]; LPS or MPLA (TLR 4 agonist) stimulation, FIG. 1): dose-dependent inhibition of proinflammatory cytokines
- proinflammatory cytokines in healthy unstimulated bovine mammary epithelial cells ([3]; varying concentrations of the peptide, unstimulated): minor increase in proinflammatory cytokines
- gene expression in milk [4]: increased expression of: CCL24, CXCL2, IL1RAP, CXCR1, and CXCR2
- animals showing a positive response to treatment [5]: 55.6%
- severity of disease [5]: reduction in bacterial counts and reduced somatic cell counts
- animals achieving clinical cure ([5]; twice daily for 3 days): 33.3%
- animals showing signs of clinical mastitis ([6]; 50 mg/10 mL intramammary, 4 doses at -12, 0, 12, 24 h, saline 95.65%): 8.70%
- animals never positive for intramammary infection ([6]; 50 mg/10 mL intramammary, 4 doses, 20 of 23 animals): 86.96% and 87.0%
- animals that never met criteria for clinical mastitis ([6]; 50 mg/10 mL intramammary, 4 doses, 21 out of 23 animals): 91.3%
- animals qualifying for subclinical mastitis ([6]; 14-day study, saline 20 of 23): None
- somatic cell count (SCC) ([6]; 6 hours post challenge, FIG. 6): notable increase in the SCC
- milk whey cytokines (IL-1B, IL-6, IL-8/CXCL8, IL-10, TNFα) ([6]; 12 hr post-challenge, vs saline): significantly lower levels of key inflammatory cytokines; also recorded: reduction in peak cytokine responses
- milk yield ([6]; AfiLab in-line system, each milking, FIG. 7): maintained high milk yields
- BSA levels in the milk vs Saline control ([6]; all time points after Day 0 at 6 hours post-challenge, FIG. 8): statistically significantly reduced BSA levels
- time of SCC return to baseline ([6]; bovine, in vivo): ≤ 24 hours post challenge
- bacterial load in the milk ([6]; first 6 days, FIG. 4): significant inhibition of E. coli ability to establish infection
- BSA return to baseline levels ([6]; milk from challenged quarter): ≤ 3 Study Day
- animals not showing an increase in body temperature ([6]; rectal temperature, 22 of 23 animals): 95.7%
- peptide antibacterial activity in the presence of milk [7]: completely inhibited
- gene expression in udder secretions [8]: increased expression of: CCL24, CXCL2, IL1RAP, CXCR1, and CXCR2
- antibacterial activity in 10% and 20% milk [9]: some inhibition of bacterial growth
- antibacterial activity in 30% whole milk ([9]; 2-minute incubation, 500 CFU/mL E. coli): completely block the antibacterial activity
- antibacterial activity in bacterial medium alone ([9]; E. coli below level of detection (10 CFU/mL) at 1, 2, 4, 6, 24 h): completely bactericidal
- overall protection against mastitis following IMM challenge with E. coli [10]: best protection against mastitis
- intramammary infection observed [10]: 52.94%
- animals meeting criteria for clinical mastitis [10]: 47.06%
- cows with normal challenged quarter ([10]; Day 6, vehicle 0%): 41.48%
- milk concentrations of BSA, milk haptoglobin, milk amyloid A, IL-1 beta, IL-6, IL-8, IL-10 and TNFα [10]: lowest
- cows demonstrating fever ([10]; vehicle 80.0%, FIG. 12): 41.2%
- duration of fever ([10]; vehicle 5.5 h): 2.4 h
- peak E. coli counts from the challenged quarter ([10]; vehicle >4.0): < 1.5 log10 CFU/mL
- bacterial load post challenge ([10]; vs vehicle control, FIG. 10): greatest reduction in the bacterial load
- BSA level in the milk ([10]; vs vehicle control, FIG. 13): lowest level of BSA in the milk

Sequence: RFGRWLRKIRRYRGKVTITIQ [Analog 1, CATH2 1-21 analog]
- overall protection against mastitis following IMM challenge with E. coli [10]: Relatively limited protection against mastitis
- intramammary infection observed [10]: 94.74%
- animals meeting criteria for clinical mastitis [10]: 78.95%
- milk concentrations of BSA, milk haptoglobin, milk amyloid A, IL-1 beta, IL-6, IL-8, IL-10 and TNFα [10]: modulation on acute phase proteins and key cytokines

Sequence: RCGRFLRKIRPFRRKVTITCQ [Analog 2, CATH2 1-21 analog]
- overall protection against mastitis following IMM challenge with E. coli [10]: Relatively limited protection against mastitis
- intramammary infection observed [10]: 94.74%
- animals meeting criteria for clinical mastitis [10]: 95.74%
- milk concentrations of BSA, milk haptoglobin, milk amyloid A, IL-1 beta, IL-6, IL-8, IL-10 and TNFα [10]: modulation on acute phase proteins and key cytokines

Source: patent publication US20240342242A1, “COMPOSITIONS AND METHODS FOR TREATING MASTITIS” (Zoetis Services LLC, priority 2021, published 2024)
